# Molecular target: T1, POLγ W748S + E1143G (Homo sapiens, UniProt P54098, E1143G/W748S)
# T1 sequence (P54098 1-1239 W748S/E1143G): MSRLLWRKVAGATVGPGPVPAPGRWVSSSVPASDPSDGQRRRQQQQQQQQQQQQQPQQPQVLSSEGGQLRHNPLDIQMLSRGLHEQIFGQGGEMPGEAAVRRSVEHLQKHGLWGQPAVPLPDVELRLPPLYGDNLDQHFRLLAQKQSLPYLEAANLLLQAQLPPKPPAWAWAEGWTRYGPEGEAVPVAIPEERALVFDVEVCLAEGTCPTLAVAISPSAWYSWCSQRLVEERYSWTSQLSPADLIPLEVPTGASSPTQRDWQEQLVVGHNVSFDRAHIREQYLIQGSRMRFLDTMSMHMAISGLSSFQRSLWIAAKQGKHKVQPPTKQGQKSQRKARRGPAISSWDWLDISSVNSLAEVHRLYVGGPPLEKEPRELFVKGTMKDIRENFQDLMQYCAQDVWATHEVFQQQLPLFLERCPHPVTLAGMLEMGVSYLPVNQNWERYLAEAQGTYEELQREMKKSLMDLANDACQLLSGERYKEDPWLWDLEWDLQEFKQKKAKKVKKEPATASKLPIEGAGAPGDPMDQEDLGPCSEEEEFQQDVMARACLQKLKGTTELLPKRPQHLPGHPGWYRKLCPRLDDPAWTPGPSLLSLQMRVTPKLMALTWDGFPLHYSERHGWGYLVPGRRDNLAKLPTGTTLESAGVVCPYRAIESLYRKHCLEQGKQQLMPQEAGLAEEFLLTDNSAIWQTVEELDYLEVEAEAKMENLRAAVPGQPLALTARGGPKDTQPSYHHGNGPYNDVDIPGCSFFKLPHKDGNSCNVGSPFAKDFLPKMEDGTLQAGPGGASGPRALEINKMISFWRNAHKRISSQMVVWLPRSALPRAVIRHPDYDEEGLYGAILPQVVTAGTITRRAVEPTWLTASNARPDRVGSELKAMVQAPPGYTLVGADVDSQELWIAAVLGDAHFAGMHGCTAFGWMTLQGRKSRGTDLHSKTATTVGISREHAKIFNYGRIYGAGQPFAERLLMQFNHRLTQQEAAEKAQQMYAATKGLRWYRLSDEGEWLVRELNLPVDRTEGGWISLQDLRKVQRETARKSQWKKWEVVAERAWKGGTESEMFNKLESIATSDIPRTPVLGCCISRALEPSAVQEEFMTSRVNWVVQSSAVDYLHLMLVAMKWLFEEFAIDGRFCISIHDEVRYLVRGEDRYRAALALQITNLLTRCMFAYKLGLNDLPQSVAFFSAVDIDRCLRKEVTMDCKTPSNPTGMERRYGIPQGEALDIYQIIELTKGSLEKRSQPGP
# T1 sequence (Q9UHN1 1-485 partner): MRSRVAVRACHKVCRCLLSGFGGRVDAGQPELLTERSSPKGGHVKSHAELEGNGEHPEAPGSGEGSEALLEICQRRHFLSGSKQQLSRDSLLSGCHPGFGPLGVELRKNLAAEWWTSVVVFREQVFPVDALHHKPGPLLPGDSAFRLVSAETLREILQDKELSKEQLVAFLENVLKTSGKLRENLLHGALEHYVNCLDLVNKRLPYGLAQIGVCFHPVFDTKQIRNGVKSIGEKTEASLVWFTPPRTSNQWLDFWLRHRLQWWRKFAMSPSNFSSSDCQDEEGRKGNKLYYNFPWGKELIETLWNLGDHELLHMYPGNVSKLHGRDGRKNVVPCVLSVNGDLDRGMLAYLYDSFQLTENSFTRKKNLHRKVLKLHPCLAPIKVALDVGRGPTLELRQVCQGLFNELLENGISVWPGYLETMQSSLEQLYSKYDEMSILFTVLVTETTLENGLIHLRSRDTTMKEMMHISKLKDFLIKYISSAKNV
# Assay: DNA polymerization assay, W748S + E1143G mutant
# Assay type: biochemical
# Conditions: stimulation of polymerase activity, primed M13mp18 ssDNA, 37° C. 2 hours
# Method: DNA Polymerization Assay to Monitor Effects on Human Wildtype POLγ and Four Disease-Causing Mutant Variants of Human POLγ.
# The ability of small molecules to stimulate the polymerase activity of POLγ was analyzed in a quantitative fluorescence SYBR Green I assay with fluorescence intensity (FI) readout.
# In the presence of dNTPs, wild type human POLγ and mutant derivatives thereof were incubated with single-stranded, circular M13mp18 ssDNA hybridized to a short DNA oligonucleotide that functions as a primer for initiation of DNA synthesis. POLγ and mutant derivatives thereof will extend the primer and use the M13mp18 molecule as a template to synthesize long stretches of double-stranded DNA. SYBR Green I, which is a double-stranded DNA-binding dye, was used to quantify formation of double-stranded DNA in the reaction. When bound to double-stranded DNA, SYBR Green I fluorescence increases by up to 100-fold.
# The assay was performed in the 384-well plate format. Upon addition of compounds, changes in double-stranded DNA synthesis activity can be monitored by following effects on fluorescent intensity.
# The reactions also contained the accessory POLγB subunit, and the human mitochondrial single-stranded DNA binding protein (mtSSB).
# The DNA template mixture used in the assay contained 0.5 nM primed M13 mp18 ssDNA, 400 nM mtSSB, 0.1 mM Tris-HCl (pH 8.0), 0.1 mM dNTP, 10 mM MgCl2, 0.1 mg/mL BSA, 1 mM TCEP solution, and 0.02% Triton X-100. The DNA template mixture for the wild type protein contained either 100 μM dNTP, 1 μM dNTP, or 0.1 μM dNTP, designated in Table 2 as 100 μM, 1 μM, and 0.1 μM, respectfully.
# Microplates with compounds (0.1 μL in each well) to be tested in the assay were prepared from 10 mM compound stocks in 100% DMSO, and equal amounts of DMSO without any compound were added to positive and negative control wells.
# The protein mixture was dispensed (5 μL into each well) into compound plates and incubated at 37° C. for 15 minutes. After incubation, 5 μL of the DNA template mixture was dispensed into each well. The plates were then incubated at 37° C. for 2 hours.
# During incubation, a combined stop buffer and detection reagent solution was prepared. The buffer contained 25 mM EDTA (pH 8.0), 0.02% Triton X-100, and SYBR Green I [Invitrogen] diluted 10,000× (for fluorescent readout). EDTA will stop the enzymatic reaction by chelating magnesium ions.
row,AC50,SMILES
1,2 µM,"Cc1cc(S(=O)(=O)Nc2cccc(C(=O)N3CCC[C@H]3C)c2)c(C)cc1Cl [Example 10, (R)-4-chloro-2,5-dimethyl-N-(3-(2-methylpyrrolidine-1-carbonyl)phenyl)benzenesulfonamide]"
2,19 µM,"Cc1cc(S(=O)(=O)Nc2cccc(C(=O)NCc3ccccc3)c2)c(C)cc1Cl [Example 11, N-benzyl-3-((4-chloro-2,5-dimethylphenyl)sulfonamido)benzamide]"
3,4 µM,"Cc1cc(S(=O)(=O)Nc2cc(F)cc(C(=O)N3CCC[C@H]3C)c2)c(C)cc1Cl [Example 13, (R)-4-chloro-N-(3-fluoro-5-(2-methylpyrrolidine-1-carbonyl)phenyl)-2,5-dimethylbenzenesulfonamide]"
4,2 µM,"Cc1cc(S(=O)(=O)Nc2cccc(-c3ncc(C#N)s3)c2)c(C)cc1Cl [Example 96, 4-chloro-N-(3-(5-cyanothiazol-2-yl)phenyl)-2,5-dimethylbenzenesulfonamide]"
5,> 100 µM,"Cc1cnc(-c2ccc(C)c(NS(=O)(=O)c3cc(C)c(Cl)cc3C)c2)s1 [Example 98, 4-chloro-2,5-dimethyl-N-(2-methyl-5-(5-methylthiazol-2-yl)phenyl)benzenesulfonamide]"
6,> 100 µM,"Cc1cnc(-c2cc(NS(=O)(=O)c3cc(C)c(Cl)cc3C)ccc2C)s1 [Example 103, 4-chloro-2,5-dimethyl-N-(4-methyl-3-(5-methylthiazol-2-yl)phenyl)benzenesulfonamide]"

# Reference: patent US20260138961A1, “MODULATORS OF MITOCHONDRIAL DNA REPLICATION” (Pretzel Therapeutics, Inc., priority 2022, published 2026)
